row,SMILES,logP
1,COc1ccc(CCNC[C@H](O)COc2ccc(-c3ncc(C(C)(C)C)[nH]3)cc2)cc1OC,2.86
2,O=C(NCCNCC(O)COc1ccc(-c2ncc[nH]2)cc1)Nc1ccccc1 (centres undefined),1.19
3,COCCc1cnc(-c2ccc(OC[C@@H](O)CNCCc3ccc(OC)c(OC)c3)cc2)[nH]1,2.06
4,COCc1nc(-c2ccc(OC[C@@H](O)CNCCc3ccc(OC)c(OC)c3)cc2)[nH]c1C,1.07
5,COc1ccc(CCNC[C@H](O)COc2ccc(-c3ncc(CO)[nH]3)cc2)cc1OC,0.63
6,COc1ccc(CCNC[C@H](O)COc2ccc(-c3ncc(Br)[nH]3)cc2Cl)cc1OC,2.73
7,CC(C)(C)NC[C@H](O)COc1ccc(Cc2ncc(-c3cccs3)[nH]2)cc1,2.57
8,COc1ccc(CCNC[C@H](O)COc2ccc(-c3ncc(C(C)=O)[nH]3)cc2)cc1OC,1.23
9,CC(C)NC[C@H](O)COc1ccc(Cc2ncc(Br)[nH]2)cc1,1.35
10,OC(CNCCc1ccncc1)COc1ccc(-c2ncc(-c3cccs3)[nH]2)cc1 (centres undefined),2.25
11,COc1ccc(CCNC[C@H](O)COc2ccc(-c3ncc(C(N)=O)[nH]3)cc2)cc1OC,0.99
12,COc1ccc(CCNC[C@H](O)COc2ccc(-c3ncc(Cl)[nH]3)cc2)cc1OC,2.4
13,COc1ccc(CCNCC(O)COc2ccc(-c3ncc(C)[nH]3)cc2Br)cc1OC (centres undefined),2.3
14,COCc1cnc(-c2ccc(OC[C@@H](O)CNCCc3ccc(OC)c(OC)c3)cc2)[nH]1,1.71
15,CCOCCNCC(O)COc1ccc(-c2ncc(-c3cccs3)[nH]2)cc1 (centres undefined),2.25
16,COc1ccc(CCNCC(O)COc2ccc(-c3ncc(C)[nH]3)cc2OC)cc1OC (centres undefined),1.89
17,COc1ccc(CCNC[C@H](O)COc2ccc(-c3ncc(-c4cccs4)[nH]3)cc2C)cc1OC,3.32
18,COc1ccc(CCNCC(O)COc2ccc(-c3ncco3)cc2)cc1OC (centres undefined),2.6
19,COc1ccc(CCNC[C@H](O)COc2ccc(Cc3ncc(-c4cccs4)[nH]3)cc2)cc1OC,2.28
20,COc1ccc(CCNC[C@H](O)COc2ccc(-c3nc(Br)c(C)[nH]3)cc2)cc1OC,2.69

row,SMILES,logP
1,COc1ccc(CCNC[C@H](O)COc2ccc(COCc3ncc[nH]3)cc2)cc1OC,1.29
2,CCOCc1cnc(-c2ccc(OC[C@@H](O)CNCCc3ccc(OC)c(OC)c3)cc2)[nH]1,0.84
3,COc1ccc(CCNC[C@H](O)COc2ccc(Cc3ncc(C(C)=O)[nH]3)cc2)cc1OC,0.87
4,COc1ccc(CCNC[C@H](O)COc2ccc(-c3ncc(Br)[nH]3)cc2)cc1OC,1.9
5,COc1ccc(CCNC[C@H](O)COc2ccc(CCc3ncc(-c4cccs4)[nH]3)cc2)cc1OC,2.08
6,COc1ccc(CCNCC(O)COc2ccc(-c3nccn3C)cc2)cc1OC (centres undefined),2.08
7,COc1ccc(CCNCC(O)COc2ccc(OCc3ncc[nH]3)cc2)cc1OC (centres undefined),1.21
8,COc1ccc(CCNC[C@H](O)COc2ccc(-c3ncc(C(C)C)[nH]3)cc2)cc1OC,2.49
9,COc1ccc(CCNC[C@H](O)COc2ccc(-c3nc(Cl)c(C)[nH]3)cc2)cc1OC,2.35
10,CC(C)NCC(O)COc1ccc(-c2ncc(-c3cccs3)[nH]2)cc1 (centres undefined),2.18
11,CC(C)NC[C@H](O)COc1ccc(-c2ncc(C(C)C)[nH]2)cc1,2.23
12,CCCNCC(O)COc1ccc(-c2ncc(-c3cccs3)[nH]2)cc1 (centres undefined),2.84
13,CC(C)NCC(O)COc1ccc(-c2ncc[nH]2)cc1 (centres undefined),0.65
14,COc1ccc(CCNCC(O)COc2ccc(-c3ncc(C)n3C)cc2)cc1OC (centres undefined),1.72
15,CCCCNC(=O)NCCNCC(O)COc1ccc(-c2ncc(C)[nH]2)cc1 (centres undefined),1.24
16,COc1ccc(CCNC[C@H](O)COc2ccc(Cc3ncc(C)[nH]3)cc2)cc1OC,1.28
17,CCOC(=O)c1cnc(-c2ccc(OC[C@@H](O)CNCCc3ccc(OC)c(OC)c3)cc2)[nH]1,2.3
18,Cc1cnc(Cc2ccc(OC[C@@H](O)CNC(C)(C)C)cc2)[nH]1,1.11
19,COc1ccc(CCNC[C@H](O)COc2ccc(-c3nc(C(C)=O)c(C)[nH]3)cc2)cc1OC,2.14

# Source: the SangsterLogP compilation
